Where “and” joins values, the source holds several entries; their conditions need not be identical. Equal entries are not always repeated.
How the values were obtained:
[1] = system: rabbits (New Zealand White species, male); assay: Test on the primary irritation of the skin; format: in vivo, rabbit; conditions: for Evaluation Value For irritation: alone, shaved rabbit back, blocked 24 hours; for effect on the primary irritation of the skin when used in combination with the irritant: in comparison with the irritant used singly, rabbit
Procedure: Each back portion of rabbits (New Zealand White species, male) was shaved and each of the test compounds was applied thereto. Each of the test compound-applied portions was blocked for 24 hours, After 24, 48, 72 and 168 hours from the time of applying the test compound, the judgments were conducted for the erythema and edema appeared on the test compound-applied portion based on their standards indicated in table 1. The average evaluation value in each time at which the judgment was conducted was calculated (the value obtained by dividing the combined value of the evaluation value for erythema and that for edema by the number of animal used in the test). In addition, the average evaluation value in each time at which the judgment was conducted was all added up and the total value was divided by the number of judgment (4 times) to make the evaluation value of the primary initation.

adult men [2] = assay: Test in human on function of inhibiting the irritation induced by an organic acid (test solution applied 3 minutes before glycolic acid); format: in vivo; conditions: glycolic acid concentration: 10%
Procedure: A series of tests were conducted by four adult men with respect to the function of inhibiting the irritation of the skin induced an organic acid. There were prepared a solution of glycolic acid dissolved in a 25% aqueous ethanol solution (the concentration of glycolic acid: 10%) and a test solution of N, N′-diacetyl-L-cystine dimethyl ester dissolved in the same solvents (the concentration of N, N′-diacetyl-L-cystine dimethyl ester: 10%). A solution of only the solvent was separately prepared as the control solution. After all of the panelists washed their faces, either test solution or control solution was applied to each right cheek of the their faces with a cotton bud. After additional 3 minutes, the glycolic acid solution was applied to the same portion as in the above and the irritation which each of the panelists felt was recorded as the score every a minute after a minute from the time of applying the glycolic acid solution for 10 minutes based on its evaluation standards shown below. […] After additional 3 minutes, the glycolic acid solution was applied to the same portion and the irritation which each of the panelists felt at the applied portion was similarly recorded as the score every a minute after a minute from the time of applying the glycolic acid solution for 10 minutes. […]

adult men [3] = assay: Test in human on function of inhibiting the irritation induced by an organic acid (solution B applied 4 minutes before glycolic acid solution A); format: in vivo; conditions: glycolic acid concentration: 20%
Procedure: A series of tests were conducted by three adult men with respect to the function of inhibiting the irritation of the skin induced an organic acid. […] After all of the panelists washed their faces, solution B (or solution C) was applied to each right cheek (or each left cheek) of the their faces with a cotton bud. […] The irritation which each of the panelists felt at the solution-applied portion was recorded as the score every a minute after a minute from the time of applying the solution for 5 minutes based on its evaluation standards shown below. In addition, the function of the test compound (N, N′-diacetyl-L-cystine dimethyl ester) for inhibiting the irritation was judged based on the judging standards shown below.

an adult = assay: Test in human on function of inhibiting erythema and irritation (tape-stripped forearm, protopic ointment); format: in vivo; conditions: skin where the barrier function was reduced by tape stripping (30 times)
Procedure: A series of tests were conducted by an adult With respect to the function of inhibiting the skin erythema and irritation induced by an organic acid. A test solution of N, N′-diacetyl-L-cystine dimethyl ester dissolved in a 25% aqueous ethanol solution (the concentration of N, N′-diacetyl-L-cystine dimethyl ester; 10%) was prepared. A solution of only the solvents was separately prepared as control solution. 30 Times of tape stripping were conducted on the inward portion of the panelist's forearm. To the portion which the tape stripping procedures have been conducted was applied {circle over (2)} test solution (or control solution) in addition to {circle over (1)} control (any solvent is not applied). After 4 minutes, to each of the portions ({circle over (1)} control portion (both forearms) {circle over (2)} test solution-applied portion and {circle over (3)} control solution-applied portion) was applied protopic ointment (tacrolimus: 1 mg/g), and the erytherma and irritation appeared on each of the portions after an additional 5 minutes were evaluated. […] In the skin where the barrier function of the skin was reduced by tape stripping (30 times), erytherma and irritation caused by the protopic ointment were suppressed by N, N′-diacetyl-L-cystine dimethyl ester.

[4] = concentration 3%, erythema + edema averaged over 24, 48, 72 and 168 hours

Molecule: CC(O)C(=O)O (stereo not drawn) [Lactic acid]
- Evaluation Value For irritation ([1]; concentration 70%, erythema + edema averaged over 24, 48, 72 and 168 hours): 1.4

Molecule: COC(=O)[C@H](CSSC[C@H](NC(C)=O)C(=O)OC)NC(C)=O [N,N′-diacetyl-L-cystine dimethyl ester]
- effect on the primary irritation of the skin when used in combination with the irritant [1]: mitigates the primary irritation of the skin
- inhibitory function in human toward irritation caused by glycolic acid (adult men [2]): exhibited inhibitory function
- inhibitory function in human toward irritation caused by glycolic acid (adult men [3]): exhibited inhibitory function
- erythema and irritation caused by the protopic ointment (an adult): suppressed

Molecule: CCCCCCCC(=O)N[C@@H](CSSC[C@H](NC(=O)CCCCCCC)C(=O)OC)C(=O)OC [N,N′-dioctanoyl-L-cystine dimethyl ester]
- effect on the primary irritation of the skin when used in combination with the irritant [1]: mitigates the primary irritation of the skin

Molecule: CCCCCCCCCCCCOS(=O)(=O)[O-].[Na+] [Sodium lauryl sulfate]
- Evaluation Value For irritation ([1]; concentration 5%, erythema + edema (each 0-4) averaged over judgments at 24, 48, 72 and 168 hours, sulfate): 6.6 and 6.4

Molecule: CCCCCCCCCCCCCCCCCC[N+](C)(C)C.[Cl-] [Stearyl trimethyl ammonium chloride]
- Evaluation Value For irritation [1, 4]: 3.7

Molecule: Benzalkonium chloride
- Evaluation Value For irritation [1, 4]: 5.3

From patent publication US20040156802A1, “Cosmetics or external preparations for skin” (priority 2001, published 2004)
